# Experimental data: patent US20240393292A1, “ALLERGY ANTIGEN AND EPITOPE THEREOF” (HOYU CO., LTD., priority 2019, published 2024)
# System: IgE antibodies from patients
# Assay: Wheat epitope mapping (2): overlapping 10-amino-acid peptide fragments shifted by one amino acid
# Type: binding, human
# Details: partial sequence
# How it was run: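 Cellulose-bound 10-mer peptides offset by one residue were probed with patient serum IgE and detected by chemiluminescence. Secondary-antibody-only signals were subtracted per peptide. Residual binding was expressed as % of the parent overlapping peptide, scored as none (<30%), poor (30–<50%), somewhat poor (50–<70%) or retained (≥70%).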
# [1] = serum of patient P53 (child, general immediate type allergy to wheat)
# [2] = serum of patient P54 (child, general immediate type allergy to wheat)
# [3] = serum of patient G3 (adult, general immediate type allergy to wheat)
# [4] = serum of patient G6 (adult, general immediate type allergy to wheat)
# [5] = serum of patient G7 (adult, general immediate type allergy to wheat)
# [6] = serum of patient G9 (adult, general immediate type allergy to wheat)
substance,measurement,setting,value
2583 (QLVQQ; REGION 1..5: note = epitope) [compound 2583],"Epitope sequence binding to IgE antibody, rank of the sequence",serum of patient P31 (WDEIA),Preferably
2584 (QLVQ; REGION 1..4: note = epitope) [compound 2584],"Epitope sequence binding to IgE antibody, rank of the sequence",serum of patient P31 (WDEIA),Key
2585 (LQQSTYQLVQ; REGION 1..10: note = epitope) [compound 2585],"Epitope sequence binding to IgE antibody, rank of the sequence",serum of patient P32 (WDEIA),Preferably
2586 (LQQSTYQL; REGION 1..8: note = epitope) [compound 2586],"Epitope sequence binding to IgE antibody, rank of the sequence",serum of patient P32 (WDEIA),Key
2587 (QLVQQLCC; REGION 1..8: note = epitope) [compound 2587],"Epitope sequence binding to IgE antibody, rank of the sequence",serum of patient P32 (WDEIA),Preferably
2588 (QQLC; REGION 1..4: note = epitope) [compound 2588],"Epitope sequence binding to IgE antibody, rank of the sequence",serum of patient P32 (WDEIA),Key
2590 (QLVQQLCC; REGION 1..8: note = epitope) [compound 2590],"Epitope sequence binding to IgE antibody, rank of the sequence",serum of patient P34 (WDEIA),Preferably
2591 (QLVQQL; REGION 1..6: note = epitope) [compound 2591],"Epitope sequence binding to IgE antibody, rank of the sequence",serum of patient P34 (WDEIA),Key
2592 (YQLVQQ; REGION 1..6: note = epitope) [compound 2592],"Epitope sequence binding to IgE antibody, rank of the sequence",serum of patient P35 (WDEIA),Preferably
2593 (QLVQ; REGION 1..4: note = epitope) [compound 2593],"Epitope sequence binding to IgE antibody, rank of the sequence",serum of patient P35 (WDEIA),Key
2594 (QLVQQL; REGION 1..6: note = epitope) [compound 2594],"Epitope sequence binding to IgE antibody, rank of the sequence",serum of patient P36 (WDEIA),Preferably
2595 (VQQL; REGION 1..4: note = epitope) [compound 2595],"Epitope sequence binding to IgE antibody, rank of the sequence",serum of patient P36 (WDEIA),Key
2597 (QQSTYQLV; REGION 1..8: note = epitope) [compound 2597],"Epitope sequence binding to IgE antibody, rank of the sequence",[1],Key
2599 (QLVQQLCC; REGION 1..8: note = epitope) [compound 2599],"Epitope sequence binding to IgE antibody, rank of the sequence",[1],Preferably
2600 (QQLC; REGION 1..4: note = epitope) [compound 2600],"Epitope sequence binding to IgE antibody, rank of the sequence",[1],Key
2601 (QQSTYQLVQ; REGION 1..9: note = epitope) [compound 2601],"Epitope sequence binding to IgE antibody, rank of the sequence",[1],Preferably
2602 (QQSTYQLV; REGION 1..8: note = epitope) [compound 2602],"Epitope sequence binding to IgE antibody, rank of the sequence",[2],Key
2603 (QLVQQLC; REGION 1..7: note = epitope) [compound 2603],"Epitope sequence binding to IgE antibody, rank of the sequence",[2],Key
2604 (YQLVQ; REGION 1..5: note = epitope) [compound 2604],"Epitope sequence binding to IgE antibody, rank of the sequence",[2],Preferably
2605 (QLVQ; REGION 1..4: note = epitope) [compound 2605],"Epitope sequence binding to IgE antibody, rank of the sequence",[3],Key
2606 (QLVQQL; REGION 1..6: note = epitope) [compound 2606],"Epitope sequence binding to IgE antibody, rank of the sequence","serum of patient G5 (adult, general immediate type allergy to wheat)",Key
2607 (LQQSTYQLVQ; REGION 1..10: note = epitope) [compound 2607],"Epitope sequence binding to IgE antibody, rank of the sequence",[4],Key
2608 (QLVQQL; REGION 1..6: note = epitope) [compound 2608],"Epitope sequence binding to IgE antibody, rank of the sequence",[4],Key
2609 (QLVQQLCC; REGION 1..8: note = epitope) [compound 2609],"Epitope sequence binding to IgE antibody, rank of the sequence",[5],Key
2610 (LQQSTYQLV; REGION 1..9: note = epitope) [compound 2610],"Epitope sequence binding to IgE antibody, rank of the sequence",[6],Key
2611 (QSTYQLVQQL; REGION 1..10: note = epitope) [compound 2611],"Epitope sequence binding to IgE antibody, rank of the sequence",[6],Key
2612 (QLVQQLCC; REGION 1..8: note = epitope) [compound 2612],"Epitope sequence binding to IgE antibody, rank of the sequence",[6],Key
2614 (AKPLL; REGION 1..5: note = epitope) [compound 2614],"Epitope sequence binding to IgE antibody, rank of the sequence",serum of patient P2 (WDEIA),Key
2615 (SLSKRV; REGION 1..6: note = epitope) [compound 2615],"Epitope sequence binding to IgE antibody, rank of the sequence",serum of patient P2 (WDEIA),Key
2616 (AKPLL; REGION 1..5: note = epitope) [compound 2616],"Epitope sequence binding to IgE antibody, rank of the sequence",serum of patient P24 (WDEIA),Key
2617 (SKRV; REGION 1..4: note = epitope) [compound 2617],"Epitope sequence binding to IgE antibody, rank of the sequence",serum of patient P24 (WDEIA),Key
2619 (LASLSK; REGION 1..6: note = epitope) [compound 2619],"Epitope sequence binding to IgE antibody, rank of the sequence",serum of patient P32 (WDEIA),Key
2621 (LLAS; REGION 1..4: note = epitope) [compound 2621],"Epitope sequence binding to IgE antibody, rank of the sequence","serum of patient G2 (adult, general immediate type allergy to wheat)",Key
2623 (SAKPLL; REGION 1..6: note = epitope) [compound 2623],"Epitope sequence binding to IgE antibody, rank of the sequence",[3],Preferably
2624 (AKPLL; REGION 1..5: note = epitope) [compound 2624],"Epitope sequence binding to IgE antibody, rank of the sequence",[3],Key
2625 (ASLSKRV; REGION 1..7: note = epitope) [compound 2625],"Epitope sequence binding to IgE antibody, rank of the sequence",[3],Preferably
2626 (LSKRV; REGION 1..5: note = epitope) [compound 2626],"Epitope sequence binding to IgE antibody, rank of the sequence",[3],Key
2627 (LLASLSKRV; REGION 1..9: note = epitope) [compound 2627],"Epitope sequence binding to IgE antibody, rank of the sequence",[5],Key
2630 (LASLSK; REGION 1..6: note = epitope) [compound 2630],"Epitope sequence binding to IgE antibody, rank of the sequence",[6],Key
2633 (KEAAEM; REGION 1..6: note = epitope) [compound 2633],"Epitope sequence binding to IgE antibody, rank of the sequence",serum of patient P7 (WDEIA),Preferably
2634 (EAAE; REGION 1..4: note = epitope) [compound 2634],"Epitope sequence binding to IgE antibody, rank of the sequence",serum of patient P7 (WDEIA),Key
2637 (KEAAEM; REGION 1..6: note = epitope) [compound 2637],"Epitope sequence binding to IgE antibody, rank of the sequence",serum of patient P10 (WDEIA),Preferably
2638 (EAAE; REGION 1..4: note = epitope) [compound 2638],"Epitope sequence binding to IgE antibody, rank of the sequence",serum of patient P10 (WDEIA),Key
2640 (RFEKEAAEMN; REGION 1..10: note = epitope) [compound 2640],"Epitope sequence binding to IgE antibody, rank of the sequence",serum of patient P14 (WDEIA),Preferably
2641 (KEAAEM; REGION 1..6: note = epitope) [compound 2641],"Epitope sequence binding to IgE antibody, rank of the sequence",serum of patient P14 (WDEIA),Key
2642 (KEAAEM; REGION 1..6: note = epitope) [compound 2642],"Epitope sequence binding to IgE antibody, rank of the sequence",serum of patient P16 (WDEIA),Key
2643 (KEAAEMN; REGION 1..7: note = epitope) [compound 2643],"Epitope sequence binding to IgE antibody, rank of the sequence",serum of patient P20 (WDEIA),Preferably
2646 (KEAAEMN; REGION 1..7: note = epitope) [compound 2646],"Epitope sequence binding to IgE antibody, rank of the sequence",serum of patient P22 (WDEIA),Key
2647 (KEAAEM; REGION 1..6: note = epitope) [compound 2647],"Epitope sequence binding to IgE antibody, rank of the sequence",serum of patient P26 (WDEIA),Key
2648 (NKRSFK; REGION 1..6: note = epitope) [compound 2648],"Epitope sequence binding to IgE antibody, rank of the sequence",serum of patient P26 (WDEIA),Key
2649 (KEAAE; REGION 1..5: note = epitope) [compound 2649],"Epitope sequence binding to IgE antibody, rank of the sequence",serum of patient P29 (WDEIA),Preferably
2652 (KEAAEM; REGION 1..6: note = epitope) [compound 2652],"Epitope sequence binding to IgE antibody, rank of the sequence",serum of patient P31 (WDEIA),Preferably
